In the NIST ThermoML archive (doi:10.1021/je100362p) one finds refractive index, speed of sound and mass density data, which are given here for nine molecules.

A word on the refractive index: it is a measure of how strongly the sample bends light. By speed of sound is commonly meant how fast a sound wave travels through the sample. For orientation: mass density means mass per unit of volume.

Structures are written as SMILES. Values joined by “and” are separate entries in the source; they are usually repeats but may differ in a detail not shown here. Equal values may be shown once. Numbers after ± are expanded uncertainties.

The nature of the first series: refractive index (Na D-line) (dimensionless). As to conditions: 298.15 K; 101.33 kPa; Liquid; Standard Abbe refractometry.
For the molecule `Cc1ccccc1O` [2-methylphenol], the refractive index is 1.544 ± 0.0007.
Same read-out and setting: to `Cc1cccc(O)c1` [3-methylphenol] belongs 1.538 ± 0.0007.
The same measure, in the same setting: to `Cc1ccc(O)cc1` [4-methylphenol] belongs 1.537 ± 0.00072; to `COc1ccccc1` [anisole], 1.51495 ± 0.00041.
Take `CCCCCCCCCCO` [decan-1-ol]: the refractive index amounted to 1.43456 ± 0.00054.

The series is the same for the next values; noted with them: 303.15 K; 101.33 kPa; Liquid; Standard Abbe refractometry.
With `Cc1ccccc1O` [2-methylphenol], the refractive index turned out to be 1.54099 ± 0.00078.
The same measure, in the same setting: to `Cc1cccc(O)c1` [3-methylphenol] belongs 1.535 ± 0.0007; to `Cc1ccc(O)cc1` [4-methylphenol], 1.534 ± 0.00072; to `COc1ccccc1` [anisole], 1.51395 ± 0.00054.
Still for that read-out and setting: to `CCCCCCCCCCO` [decan-1-ol] belongs 1.43256 ± 0.00054 and 1.43266 ± 0.00054.

Staying with this series, now noted: 308.15 K; 101.33 kPa; Liquid; Standard Abbe refractometry.
With `Cc1ccccc1O` [2-methylphenol], the refractive index is recorded as 1.53699 ± 0.00087.
The same measure, in the same setting: to `Cc1cccc(O)c1` [3-methylphenol] belongs 1.532 ± 0.0007.
The same measure, in the same setting: to `Cc1ccc(O)cc1` [4-methylphenol] belongs 1.531 ± 0.00072; to `COc1ccccc1` [anisole], 1.51095 ± 0.0007.
Same read-out and setting: to `CCCCCCCCCCO` [decan-1-ol] belongs 1.4305 ± 0.00055.

A further series in a line: xn = mol fraction of the nth substance listed. As to conditions: 298.15 K; 101 kPa; Liquid; Sing-around technique in a fixed-path interferometer; x2 = 0.
In the case of `CCCCCCCCCCO` [decan-1-ol] + COc1ccccc1, the speed of sound was found to be 1379.4 ± 1.1 m/s.
The same measure, in the same setting: to `CCCCCCCCCCO` [decan-1-ol] + Cc1ccc(O)cc1 belongs 1379.4 ± 1.1 m/s.
On to `CCCCCCCCCCO` [decan-1-ol] + Cc1cccc(O)c1, for which the speed of sound was determined as 1379.4 ± 1.1 m/s.
The same measure, in the same setting: to `CCCCCCCCCCO` [decan-1-ol] + Cc1ccccc1O belongs 1379.4 ± 1.1 m/s.

The series is the same for the next values; noted with them: 298.15 K; 101 kPa; Liquid; x2 = 0.
`CCCCCCCCCCO` [decan-1-ol] + COc1ccccc1: the mass density was found to be 826.526 ± 0.55 kg/m3.
Take `CCCCCCCCCCO` [decan-1-ol] + Cc1ccc(O)cc1: the mass density is on record as 826.526 ± 0.55 kg/m3.
On the same count and under the same terms, to `CCCCCCCCCCO` [decan-1-ol] + Cc1cccc(O)c1 belongs 826.526 ± 0.55 kg/m3; to `CCCCCCCCCCO` [decan-1-ol] + Cc1ccccc1O, 826.526 ± 0.55 kg/m3.

The series is the same for the next values; noted with them: 303.15 K; 101 kPa; Liquid; Sing-around technique in a fixed-path interferometer; x2 = 0.
Take `CCCCCCCCCCO` [decan-1-ol] + COc1ccccc1: the speed of sound worked out at 1362.3 ± 1.1 m/s.
Same read-out and setting: to `CCCCCCCCCCO` [decan-1-ol] + Cc1ccc(O)cc1 belongs 1362.3 ± 1.1 m/s; to `CCCCCCCCCCO` [decan-1-ol] + Cc1cccc(O)c1, 1362.3 ± 1.1 m/s.
On the same count and under the same terms, to `CCCCCCCCCCO` [decan-1-ol] + Cc1ccccc1O belongs 1362.3 ± 1.1 m/s.

Staying with this series, now noted: 303.15 K; 101 kPa; Liquid; x2 = 0.
Turning to `CCCCCCCCCCO` [decan-1-ol] + COc1ccccc1, the mass density was determined as 823.101 ± 0.56 kg/m3.
With `CCCCCCCCCCO` [decan-1-ol] + Cc1ccc(O)cc1, the mass density was determined as 823.101 ± 0.56 kg/m3.
The same measure, in the same setting: to `CCCCCCCCCCO` [decan-1-ol] + Cc1cccc(O)c1 belongs 823.101 ± 0.56 kg/m3.
Same read-out and setting: to `CCCCCCCCCCO` [decan-1-ol] + Cc1ccccc1O belongs 823.101 ± 0.56 kg/m3.

Still in this series, the particulars now being: 308.15 K; 101 kPa; Liquid; Sing-around technique in a fixed-path interferometer; x2 = 0.
As for `CCCCCCCCCCO` [decan-1-ol] + COc1ccccc1, the speed of sound worked out at 1345.6 ± 1.1 m/s.
Still for that read-out and setting: to `CCCCCCCCCCO` [decan-1-ol] + Cc1ccc(O)cc1 belongs 1345.6 ± 1.1 m/s.
Same read-out and setting: to `CCCCCCCCCCO` [decan-1-ol] + Cc1cccc(O)c1 belongs 1345.6 ± 1.1 m/s.
As to `CCCCCCCCCCO` [decan-1-ol] + Cc1ccccc1O, the speed of sound came out at 1345.6 ± 1.1 m/s.

The series is the same for the next values; noted with them: 308.15 K; 101 kPa; Liquid; x2 = 0.
With `CCCCCCCCCCO` [decan-1-ol] + COc1ccccc1, the mass density worked out at 819.671 ± 0.57 kg/m3.
Same read-out and setting: to `CCCCCCCCCCO` [decan-1-ol] + Cc1ccc(O)cc1 belongs 819.671 ± 0.57 kg/m3.
For `CCCCCCCCCCO` [decan-1-ol] + Cc1cccc(O)c1, the mass density is reported as 819.671 ± 0.57 kg/m3.
As for `CCCCCCCCCCO` [decan-1-ol] + Cc1ccccc1O, the mass density turned out to be 819.671 ± 0.57 kg/m3.

Experiment in another series: not given
Particulars: 298.15 K; 101 kPa; Liquid.
For the molecule `Cc1ccccc1O` [2-methylphenol], the mass density amounted to 1042.32 ± 0.27 kg/m3.
Still for that read-out and setting: to `Cc1cccc(O)c1` [3-methylphenol] belongs 1030.05 ± 0.25 kg/m3; to `Cc1ccc(O)cc1` [4-methylphenol], 1030.14 ± 0.49 kg/m3.
The same measure, in the same setting: to `COc1ccccc1` [anisole] belongs 989.145 ± 0.25 kg/m3; to `CCCCCCCCCCO` [decan-1-ol], 826.526 ± 0.55 kg/m3.

The series is the same for the next values; noted with them: 298.15 K; 101 kPa; Liquid; Sing-around technique in a fixed-path interferometer.
On to `Cc1ccccc1O` [2-methylphenol], for which the speed of sound is given as 1504.6 ± 1.1 m/s.
Same read-out and setting: to `Cc1cccc(O)c1` [3-methylphenol] belongs 1480.9 ± 1 m/s.
Same read-out and setting: to `Cc1ccc(O)cc1` [4-methylphenol] belongs 1486.4 ± 1.4 m/s; to `COc1ccccc1` [anisole], 1406.9 ± 1.1 m/s; to `CCCCCCCCCCO` [decan-1-ol], 1379.4 ± 1.1 m/s.

Staying with this series, now noted: 303.15 K; 101 kPa; Liquid.
Regarding `Cc1ccccc1O` [2-methylphenol], the mass density is given as 1036.94 ± 0.26 kg/m3.
With `Cc1cccc(O)c1` [3-methylphenol], the mass density came to 1026.09 ± 0.24 kg/m3.
In the case of `Cc1ccc(O)cc1` [4-methylphenol], the mass density is 1026.28 ± 0.48 kg/m3.
On the same count and under the same terms, to `COc1ccccc1` [anisole] belongs 984.433 ± 0.26 kg/m3.
Same read-out and setting: to `CCCCCCCCCCO` [decan-1-ol] belongs 823.101 ± 0.56 kg/m3.

Staying with this series, now noted: 303.15 K; 101 kPa; Liquid; Sing-around technique in a fixed-path interferometer.
Take `Cc1ccccc1O` [2-methylphenol]: the speed of sound was 1487.4 ± 1.1 m/s.
The same measure, in the same setting: to `Cc1cccc(O)c1` [3-methylphenol] belongs 1465.2 ± 1 m/s; to `Cc1ccc(O)cc1` [4-methylphenol], 1470.7 ± 1.4 m/s.
Consider `COc1ccccc1` [anisole], for which the speed of sound is 1386.8 ± 1.1 m/s.
The same measure, in the same setting: to `CCCCCCCCCCO` [decan-1-ol] belongs 1362.3 ± 1.1 m/s.

The same series, now with this note: 308.15 K; 101 kPa; Liquid.
Turning to `Cc1ccccc1O` [2-methylphenol], the mass density is on record as 1031.55 ± 0.25 kg/m3.
On to `Cc1cccc(O)c1` [3-methylphenol], for which the mass density was found to be 1022.12 ± 0.23 kg/m3.
For `Cc1ccc(O)cc1` [4-methylphenol], the mass density came to 1022.38 ± 0.47 kg/m3.
Same read-out and setting: to `COc1ccccc1` [anisole] belongs 979.712 ± 0.27 kg/m3.
Still for that read-out and setting: to `CCCCCCCCCCO` [decan-1-ol] belongs 819.671 ± 0.57 kg/m3.

The same series, now with this note: 308.15 K; 101 kPa; Liquid; Sing-around technique in a fixed-path interferometer.
In the case of `Cc1ccccc1O` [2-methylphenol], the speed of sound stood at 1470.3 ± 1 m/s.
The same measure, in the same setting: to `Cc1cccc(O)c1` [3-methylphenol] belongs 1449.6 ± 1 m/s; to `Cc1ccc(O)cc1` [4-methylphenol], 1455 ± 1.4 m/s; to `COc1ccccc1` [anisole], 1366.5 ± 1.1 m/s.
Regarding `CCCCCCCCCCO` [decan-1-ol], the speed of sound stood at 1345.6 ± 1.1 m/s.

A further series is described as follows: refractive index (Na D-line) (dimensionless); xn = mol fraction of the nth substance listed. As to conditions: 298.15 K; 101 kPa; Liquid; Standard Abbe refractometry; x2 = 0.
Consider `CCCCCCCCCCO` [decan-1-ol] + COc1ccccc1, for which the refractive index was 1.43456 ± 0.00054.
Same read-out and setting: to `CCCCCCCCCCO` [decan-1-ol] + Cc1ccc(O)cc1 belongs 1.43456 ± 0.00054.
`CCCCCCCCCCO` [decan-1-ol] + Cc1cccc(O)c1: the refractive index worked out at 1.43456 ± 0.00054.
Still for that read-out and setting: to `CCCCCCCCCCO` [decan-1-ol] + Cc1ccccc1O belongs 1.43456 ± 0.00052.

Still in this series, the particulars now being: 303.15 K; 101 kPa; Liquid; Standard Abbe refractometry; x2 = 0.
With `CCCCCCCCCCO` [decan-1-ol] + COc1ccccc1, the refractive index was determined as 1.43256 ± 0.00054.
Same read-out and setting: to `CCCCCCCCCCO` [decan-1-ol] + Cc1ccc(O)cc1 belongs 1.43256 ± 0.00054; to `CCCCCCCCCCO` [decan-1-ol] + Cc1cccc(O)c1, 1.43256 ± 0.00054; to `CCCCCCCCCCO` [decan-1-ol] + Cc1ccccc1O, 1.43266 ± 0.00054.

Staying with this series, now noted: 308.15 K; 101 kPa; Liquid; Standard Abbe refractometry; x2 = 0.
As for `CCCCCCCCCCO` [decan-1-ol] + COc1ccccc1, the refractive index is recorded as 1.4305 ± 0.00055.
As to `CCCCCCCCCCO` [decan-1-ol] + Cc1ccc(O)cc1, the refractive index came out at 1.4305 ± 0.00055.
Consider `CCCCCCCCCCO` [decan-1-ol] + Cc1cccc(O)c1, for which the refractive index is 1.4305 ± 0.00055.
On the same count and under the same terms, to `CCCCCCCCCCO` [decan-1-ol] + Cc1ccccc1O belongs 1.4305 ± 0.00056.
